Measured values: US7029879B1, “Iodine uptake restoration in thyroid cancer” (University of Kentucky Research Foundation, priority 1999, dated 2006)

Experiments:
[1] = test system: KAT-10 cells (papillary carcinoma); test: Iodide uptake assay (specific 125I uptake), KAT-10; type: cell-based, human; also: key: mRNA expression (hNIS, TTF-1, Pax-8): +, positive; −, negative
Procedure: (§1) Cell lines, for evaluation of iodide-uptake and hNIS expression, were grown in phenol-red-free RPMI 1640 with 5% fetal bovine serum (FBS), 100 nM sodium selenite and 0.1 nM bovine TSH (basal medium) (20). They were plated at a density of 3–5×10^4 cells/9.4 cm^2, in triplicate in basal medium, and grown for 2–3 days at 37° C. in 5% CO2. They were treated with dimethylsulfoxide (DMSO, 25 μM daily for 3 days), sodium butyrate (0.5 or 1.0 mM), phenylacetate (pH 7.0, 5 or 10 mM) or 5-azacytidine (0.5 or 1.0 μM, in 25 μM DMSO, daily for 3 days) until control cells were 80% confluent (3–4 days), then changed to fresh basal medium and grown for an additional 24 hrs.
(§2) Cell lines, treated with differentiation agents and control cultures, were washed with 2 mL of buffer containing: 10 mM HEPES ([…]), 5.5 mM glucose, 5.4 mM KCl, 1.3 mM CaCl2, 0.4 mM Na2HPO4, 0.44 mM KH2PO4, and either 137 mM NaCl (Buffer A) or 100 mM choline chloride (Buffer B). After a 60 min incubation in the same buffer supplemented with Na(^125I) (1.0 μCi/2 mL) and 1.0 μM NaI, cells were washed once with Buffer A, lysed with 0.1 M NaOH and gamma counted (5). A parallel set of dishes, similarly plated and treated, were used for normalization of uptake activity, using 3-(4,5-dimethylthiazol-2-yl)-2,5-diphenyltetrazolium bromide (MTT) assay (25) as an index of cell viability. Gamma counts of cells incubated in Buffer B were subtracted from counts of cells incubated in Buffer A, under corresponding conditions, to account for non-specific binding of radioiodide.

[2] = test system: KAT-5 cells (papillary carcinoma); test: Iodide uptake assay (specific 125I uptake), KAT-5; type: cell-based, human; also: key: mRNA expression (hNIS, TTF-1, Pax-8): +, positive; −, negative
Procedure: as §1, §2

[3] = test system: KAK-1 cells (benign follicular adenoma); test: Iodide uptake assay (specific 125I uptake), KAK-1; type: cell-based, human; settings: for Specific ^125I Uptake: KAK-1
Procedure: as §1, §2

[4] = test system: hNIS mRNA; test: hNIS mRNA re-expression by RT-PCR in treated human thyroid cell lines; type: cell-based; settings: for hNIS mRNA expression despite treatment: MRO87, WRO82 and KAT-7 cell lines
Procedure: as §1
(§3) Total RNA and genomic DNA from: normal human thyroid, thyroid tumors, and cell lines (treated with agents described above), were isolated by the acid-guanidinium-phenol-chloroform method (21). All surgical samples were snap-frozen and stored at −80° C. until processed by homogenization in Trizol reagent (Life Technologies, Gaithersburg, Md.) while still frozen. Complementary DNA (cDNA) was synthesized from 1.0 μg of total RNA using MMLV reverse transcriptase (RT) with random-hexamer primers (Clontech, Palo Alto, Calif.). Each 50 μL polymerase chain reaction (PCR) vessel contained: 60 mM Tris HCl, pH 9.0, 15 mM ammonium sulfate, 3.5 mM MgCl2 (1.5 mM for hTTF-1), 250 μM dNTPs (Boehringer-Mannheim, Indianapolis, Ind.), 0.2 μM each primer pair, 1 U AmpliTaq DNA polymerase (Perkin-Elmer, Norwalk, Conn.), 0.2 μg TaqStart Antibody (Clontech) and 3% cDNA. β-actin amplification (primers, Stratagene, La Jolla, Calif.) confirmed cDNA integrity, purity, and template equivalence for semiquantification. PCR primers (upstream 5′ to 3′/downstream 5′ to 3′, in all cases) used for amplification were, for hNIS (5), CTGCCCCAGACCAGTACAT GCC (SEQ ID NO. 1)/[…] (SEQ ID NO. 2) (to amplify a coding region spanning four introns (4) yielding a 303 bp product from cDNA) and for Pax-8, […] (SEQ ID NO. 3)/[…] (SEQ ID NO. 4)((22) to amplify a 329 bp product). Amplification conditions for hNIS and Pax-8 were: denaturation (95° C.×5 min); 40 cycles of 20 sec at 95° C. and 60 sec at 68° C.; followed by extension at 72° C. for 3 min. The hTTF-1 product was amplified with intron spanning primers, […] (SEQ ID NO. 5)/[…] (SEQ ID NO. 6), which amplify a 263 bp fragment. The conditions were: 95° C. for 5 min; 45 cycles of 95° C. for 20 sec, 60° C. for 60 sec, and 72° C. for 30 sec; followed by extension at 72° C. for 3 min. The RT-PCR products were resolved on 2% agarose gels and visualized by ethidium bromide staining.

[5] = test system: Pax-8 mRNA; test: Pax-8 mRNA expression by RT-PCR in treated cell lines; type: cell-based, human; also: key: mRNA expression (hNIS, TTF-1, Pax-8): +, positive; −, negative
Procedure: as §1, §3

[6] = low: AzaC 0.5 μM, NaB 0.5 mM, PhAc 5.0 mM
[7] = high: AzaC 1.0 μM, NaB 1.0 mM, PhAc 10 mM
[8] = KAK-1, high: AzaC 1.0 μM, NaB 1.0 mM, PhAc 10 mM
[9] = KAK-1, low: AzaC 0.5 μM, NaB 0.5 mM, PhAc 5.0 mM
[10] = KAT-5, high: AzaC 1.0 μM, NaB 1.0 mM, PhAc 10 mM
[11] = KAT-5, low: AzaC 0.5 μM, NaB 0.5 mM, PhAc 5.0 mM
[12] = KAT-10, low: AzaC 0.5 μM, NaB 0.5 mM, PhAc 5.0 mM
[13] = NPA'87, high: AzaC 1.0 μM, NaB 1.0 mM, PhAc 10 mM
[14] = NPA'87, low: AzaC 0.5 μM, NaB 0.5 mM, PhAc 5.0 mM
[15] = NPA'87, high: AzaC 1.0 μM, NaB 1.0 mM

Row | Compound | Specific ^125I Uptake [1, 6] | Specific ^125I Uptake [2, 7] | Specific ^125I Uptake [2, 6] | Specific ^125I Uptake [3, 7] | Specific ^125I Uptake [3, 6] | hNIS mRNA [4, 8] | hNIS mRNA [4, 9] | hNIS mRNA [4, 10] | hNIS mRNA [4, 11] | hNIS mRNA [4, 12] | hNIS mRNA expression despite treatment [4] | hNIS mRNA [4, 13] | hNIS mRNA [4, 14] | Pax-8 mRNA [5, 15] | other results
1 | Nc1ncn([C@@H]2O[C@H](CO)[C@@H](O)[C@H]2O)c(=O)n1 [AzaC, 5-azacytidine] | − | − | − | + | − | + | + | + | − | + | failed to express hNIS mRNA | + | − | + | enhancement of ^125I uptake ([3]; KAK-1 cells, 0.5 μM 5-azacytidine): no enhancement of uptake; increase in ^125I uptake as compared with untreated cells ([3]; KAK-1 cells, 1.0 μM 5-azacytidine): greater than two-fold; re-expression of hNIS mRNA, comparison of the two concentrations ([4]; KAK-1 cells, 0.5 μM vs 1.0 μM 5-azacytidine): comparable; Pax-8 mRNA ([5]; KAK-1, high: AzaC 1.0 μM): +; Pax-8 mRNA ([5]; KAK-1, low: AzaC 0.5 μM): +; Pax-8 mRNA ([5]; KAT-5, high: AzaC 1.0 μM, PhAc 10 mM): +; Pax-8 mRNA ([5]; KAT-10, low: AzaC 0.5 μM): +
2 | CCCC(=O)[O-].[Na+] [NaB, sodium butyrate] | − | − | − | − | − | − | − | − | − | − | failed to express hNIS mRNA | + | − | + | Specific ^125I Uptake ([1]; high: NaB 1.0 mM, PhAc 10 mM): −; hNIS mRNA ([4]; KAT-10, high: NaB 1.0 mM, PhAc 10 mM): +; re-expression of hNIS mRNA ([4]; NPA'87 and KAT-10): re-expression of hNIS mRNA; Pax-8 mRNA ([5]; KAT-10, high: NaB 1.0 mM): +
